For series [1] the following is noted: literature value, no reference given; cited from earlier work.
Series [2] is described as follows: pKa determination by UV/vis spectrometric method. The series is classed as physicochemical. The settings on record: buffers I = 0.1 M, 1% methanol. The text has this:
For the successful determination of pKa values using the UV/vis spectrometric method, the UV/vis absorbance of the sample must change as a function of ionization. […] For the other investigated compounds, the spectra and results of data analysis are presented in the Supporting Information (Figures S1–S3). […] At lower pH values, the molecules are neutral with an absorption maximum between 311 nm and 343 nm. At the highest pH value, only deprotonated species are present with two absorption maxima, one at a wavelength around 370 nm and the other around 305 nm. […] Data analysis for the determination of ionization constants by spectral analysis applied in this study is described by Tomsho et al. and Ríos Martínez and Dardonville.
The results of repeated measurements show satisfactory precision with scatter values less than or equal to 0.06 for all compounds [36].
Working solutions were prepared by 100-fold dilution of stock solutions with appropriate buffer solutions.
Chemicals used for preparation of buffers were sodium acetate (Alkaloid, Skopje, Macedonia), potassium dihydrogenphosphate (Lach-ner, Neratovice, Czech Republic), sodium hydrogencarbonate (Kemika, Zagreb, Croatia), and dipotassium hydrogenphosphate (Fisher Chemical, Loughborough, UK). Sodium hydroxide was supplied by Gram-mol (Zagreb, Croatia), and hydrochloric acid was supplied by VWR Chemicals (Leuven, Belgium). All chemicals used were of analytical grade and used as received. For the preparation of buffer solutions for spectrophotometric measurements, stock solutions of 0.1 M sodium acetate, 0.05 M potassium dihydrogen phosphate, 0.05 M sodium hydrogen carbonate, and 0.05 M dipotassium hydrogen phosphate were used. Sodium acetate/acetic acid buffer was used for pH range 3.5−5.0, KH2PO4/K2HPO4 for pH range 5.5–8.5, […] for pH range 9.0−11.0, and K2HPO4/K3PO4 for pH range 11.0−11.5. All buffer solutions were prepared with the same ionic strength (I = 0.1 M) by adding KCl (Lach-ner, Neratovice, Czech Republic).
The exact pH value of the prepared buffer solutions was measured with an S20 SevenEasy pH-meter (MettlerToledo, Greifenseea, Switzerland).
The data analysis was carried out in the entire specified range. However, due to high absorbance at short wavelengths and zero absorbance at wavelengths greater than 500 nm, spectra in the range from 250 nm to 500 nm are shown in the figures for a clearer presentation. […] Appropriate buffer solutions were used as a blank.
Data analysis included correction of the raw spectra (A(500 nm) = 0) and the calculation of the spectral difference, which were performed using Excel program. The spectral difference was determined between the spectra recorded at each pH and at the spectra recorded at the lowest pH. The wavelengths of maximum positive and negative deviations were determined from the spectral difference graph. The absolute values of the absorbance difference at the determined wavelengths were summed to obtain total absorbance difference. The dependence of the total absorbance difference on pH (spectral difference graph) gives a characteristic sigmoidal curve. […] (1) Total absorbace difference = STεHA−εA^−·10^(pH−pKa)/1+10^(pH−pKa) where [ST] is the total substance concentration, and εHA and εA^− represent the extinction coefficients of the acidic and basic form of the compound, respectively.
Measurements were performed using freshly prepared working solutions. For each resveratrol analogue and each pH, three consecutive measurements were made.

Setting [3] is: mean of three determinations, read-out: pKa¯ ± Scatter Value.
[4] abbreviates: single determination (one of three).
The mark [5] stands for this setting: single determination (one of three), read-out: pKa.

“And” between values parts separate entries of the source, which are not always exact repeats. Identical values can stand only once. Like-named read-outs stand apart in the source and are kept apart here.

The term pKa denotes the negative logarithm of the acid dissociation constant.

For `COc1cccc(O)c1` [meta-methoxyphenol], in series [1], the “experimental pKa^exp” value is recorded as 9.6.
For the molecule `Oc1cccc(/C=C/c2cccs2)c1` [Compound 3, (E)-3-(2-(Thiophen-2-yl)vinyl)phenol], the pKa in series [2] (setting [3]) turned out to be 10.1; in series [2] (setting [4]) it was 10.05; in series [2] (setting [5]) it was 10.1.
Take `COc1ccc(/C=C/c2cccs2)c(O)c1` [Compound 4, (E)-5-Methoxy-2-(2-(thiophen-2-yl)vinyl)phenol]: the pKa was 9.17 ± 0.06 in series [2] (setting [3]); 9.21 and 9.11 in series [2] (setting [4]); 9.19 in series [2] (setting [5]).
With `Oc1ccccc1/C=C/c1cccs1` [Compound 2, (E)-2-(2-(Thiophen-2-yl)vinyl)phenol], the pKa in series [2] (setting [3]) is 9.88 ± 0.04; in series [2] (setting [4]), 9.86 and 9.92; in series [2] (setting [5]) it was 9.85.
Consider `COc1ccc(/C=C/c2ccc(C)s2)c(O)c1` [Compound 6, (E)-5-Methoxy-2-(2-(5-methythiophen-2-yl)vinyl)phenol], for which the pKa is 9.62 in series [2] (setting [3]); 9.59 and 9.66 in series [2] (setting [4]); 9.62 in series [2] (setting [5]).
As to `Cc1ccc(/C=C/c2ccccc2O)s1` [Compound 5, (E)-2-(2-(5-Methylthiophen-2-yl)vinyl)phenol], the figures for the pKa in series [2] (setting [3]), in series [2] (setting [4]) and in series [2] (setting [5]) were 9.4, 9.36 and 9.45, respectively.
